This is an account of results in US8598383B2, “Pharmaceutical composition for treating or preventing degenerative and inflammatory diseases” (Neurotech Pharmaceuticals Co., Ltd., priority 2006, dated 2013).

Series [1] concerns atherosclerosis. The following applies: early formation of atherosclerotic lesion; cited from earlier work.
For series [2], the system named is diabetic symptoms. As to conditions: mouse administered streptozotocin; cited from earlier work.
The subject of series [3] is cerulein-induced pancreatitis. The experiment in a line: Cerulein-induced acute pancreatitis model. Type of series: in vivo, wistar rat. As to the method: FIG. 21 is efficacy test results using acute pancreatitis model induced by cerulein. 50 ug/kg of cerulein was administered. Two hours later, edema was induced by administration of LPS. A-C are picture results, and D is graphs showing the weight of pancreas.
FIG. 22 is efficacy test results using acute pancreatitis model induced by cerulein. 50 ug/kg of cerulein was administered. Two hours later, edema was induced by administration of LPS. 25 mg/kg of compound 18 was administered, and the changes of amylase and lipase, pancreatic digestive enzymes, were quantified.
Cerulein-induced pancreatitis model was used as acute pancreatitis model. Cerulein is an analog of cholecystokinin and a hormone causing secretion of pancreatic digestive enzyme in pancreas. Digestive enzyme was over-secreted into pancreas by intraperitoneal injection of cerulein (50 ug/kg). LPS was injected 2 hours later to induce edema. When cerulein was administered, massive edema was observed on the basis of spleen. […] D of FIG. 21 is results showing the pancreas weight increased by the edema.
The model excessively increases digestive enzymes, which are released into blood. That is, the decrease of digestive enzyme in blood can be an indirect evidence for sample to reduce pancreatitis.
To confirm the protecting effect on inflammation, the levels of TNF-α and […], inflammatory cytokines, were evaluated. PGE2, the product of COX-2 (inflammation enzyme), were evaluated by ELISA method.

For series [4], the system named is gastric mucous membrane. The experiment in a line: Safety test about induction of gastric mucous membrane damage. Type of series: in vivo. The following applies: oral, high dose; indomethacine, ibuprofen, celecoxib as control. On the procedure:
Test samples were orally administered at different doses to evaluate the degree of the gastric mucous membrane damage. Aspirin was used as control.
FIG. 2 is results showing degrees of the gastric mucous membrane damage. Test samples were orally administered at indicated doses. […] Indomethacine, ibuprofen and celecoxib were used as control.
Conventional NSAIDs have side effects causing damages to the gastric mucous membrane. Therefore, it was evaluated whether compound 2 having anti-inflammatory effect causes the gastric damage or not. 30, 100 or 300 mg/kg of aspirin was orally administered as control.

The test system of series [5] is collagen-induced arthritis. The series is described as follows: Collagen-induced arthritis model (arthritic index). Type of series: in vivo, mouse. The following applies: 25 mg/kg/day intraperitoneal. As to the method: FIG. 15 is results showing efficacy through arthritis animal model induced by collagen. 25 mg/kg of compound 2, 3 or 18, or methotrexate (control, MTX, 1 mg/kg/week) was intraperitoneally injected after administration of collagen.
FIG. 16 is results showing efficacy of compounds 6 and 11 through arthritis animal model induced by collagen. Collagen was intradermally injected two times with 2 week-interval. One week later, compound 6, compound 11 and methotrexate (control) were intraperitoneally injected. Then, the animals were observed everyday for 2-3 weeks, and results was evaluated by arthritis index.
To evaluate the efficacy of the 2-hydroxybenzoic acid derivative, collagen-induced arthritis model (rheumarthritis animal model) was used. Bovine type II collagen was mixed with complete Freund's adjuvant to make an emulsion, and the emulsion was intradermally injected into the origin site of 8˜10 week-old DBA/1LacJ mouse tail. Intradermal boosting was performed by the same method 2 weeks later. 25 mg/kg/day of compounds 2, 3 and 18, 1 mg/kg/week of methotrexate (comparative example) or 10% vehicle (control) were intraperitoneally injected one week after the second intradermal injection of collagen (FIG. 15). Pictures of foot edema of normal rat (sham), collagen-administered rat (collagen) and compound 18-administered rat (compound 18, 25 mg/kg/day injection) were shown in FIG. 14.
In addition, 50 mg/kg/day of compounds 6 and 11, and 5 mg/kg/2 days of methotrexate (comparative example) were intraperitoneally injected. Phosphate buffered saline was injected as control (FIG. 16). For 2˜3 weeks, the degree of arthritis was observed everyday, and the result was evaluated according to the below arthritic index using edema.
4 paws were evaluated as from 0 to 4 point, Total points: 16

In series [6] the test system is DSS-induced colitis. The experiment in a line: 5% dextran sulfate sodium (DSS) inflammatory intestinal disease model. In kind it is in vivo, mouse. On the procedure:
FIG. 17 is results showing efficacy through 5% dextran sulfate sodium (DSS) model, inflammatory intestinal disease animal model. After treatment of DSS, 10, 25 or 50 mg/kg of compound 18 suspended in 10% vehicle was orally administered. Sham means colon of normal mouse, DSS means colon mouse treated with 5% DSS. The others are pictures of colon of mice administered with compound 18 at indicated dose.
FIG. 20 is an efficacy test result of compound 18 using DSS. After treatment of DSS, compound 18 (25 mg/kg) suspended in 10% vehicle was orally administered. After that, bloody excrement by colon injury, diarrhea and the degree of dirtiness were evaluated as feces score.
5% dextran sulfate sodium (DSS) model was used as inflammatory intestinal disease animal model. 5% DSS mixed with water was orally administered. 5% DSS model causes damage to epithelial cell, and ulcer in left colon and the decrease of colon length are mainly observed in the model. This model is simple and reproductive, and can regulate the degree of inflammation according to dose. Therefore, this model is often used for evaluating drug candidates.
DSS is continuously administered in water bottle. The 2-hydroxybenzoic acid derivative was suspended in 10% vehicle, and orally administered.

For series [7], the system named is BV2 microglia cell line. The series is described as follows: Suppressing effect on production of NO (LPS, Griess reagent). Type of series: cell-based. The following applies: Mus musculus, BV-2, LPS-treated BV2 microglia, 24 hours incubation. As to the method: Inhibiting effect of the 2-hydroxybenzoic acid derivative according to the present invention on NO, inflammatory factor intervening inflammation reaction was evaluated. BV2 microglia cell line was treated with lipopolysaccharide (LPS), a inflammation-inducing material of bacteria toxin, with inclusion of 10 uM, 30 uM or 100 uM of the present compound. After 24 hours of incubation, 50 ul of culture medium was collected in 96-well plate. Then, 50 ul of Griess reagent was added and incubated for 10 minutes at room temperature. The absorbance was evaluated by ELISA reader at 540 nm.
In general terms: The Griess reaction detects nitrite, a stable product of nitric oxide.

A short description of series [8]: Single-dose toxicity test. In kind it is in vivo. As to conditions: mouse, in vivo; single dose. On the procedure: FIG. 32 is results of single dose toxicity testing of some 2-hydroxybenzoic acid derivatives according to the present invention.
Single-dose toxicities of the 2-hydroxybenzoic acid derivatives were evaluated.

Regarding `COc1ccc2c(c1)c(CC(=O)O)c(C)n2C(=O)c1ccc(Cl)cc1` [indomethacine], the reduction of atherosclerosis in series [1] is 38-51%.

In the case of `C[C@@H](O)CCCCn1c(=O)c2c(ncn2C)n(C)c1=O` [Lisofylline], the “reduction of diabetic symptoms” value in series [2] is listed as 50%.

As for `CC(=O)Oc1ccc(NCCc2ccc(C(F)(F)F)cc2)cc1C(=O)O` [compound 18, 2-acetoxy-5-[2-(4-trifluoromethyl-phenyl)-ethylamino]-benzoic acid], in series [3] (25 mg/kg), the “amylase and lipase in plasma” value is on record as “significantly reduced the increase”; the pancreas weight entry is “significantly reduced pancreas weight”; the pancreatic edema entry is “the edema was decreased”. Further, the “TNF-α, IL-1β and PGE2 (inflammation markers)” value in series [3] (ELISA) is “significantly reduced these inflammation markers”. The “gastric mucous membrane damage” value in series [4] was “did not cause damage to gastric mucous membrane”. Also, the arthritic index result in series [5] was “apparent reducing effect”. The “length and width of colon” value in series [6] (oral, 10, 25 or 50 mg/kg in 10% vehicle) was “significantly changed the length and width of the colon”. Also, the “feces score (bloody excrement, diarrhea, dirtiness)” value in series [6] (vs DSS only, compound 18 25 mg/kg oral) is on record as “significantly decreased feces score”. In series [7], half-maximal inhibition (IC50) required 21.6 µM. The 50% lethal dose (LD50) in series [8] was > 3000 mg/kg.

The term IC50 denotes the concentration that inhibits the measured activity by half. For orientation: LD50 means the dose expected to kill half of the subjects tested. Low readings indicate greater toxicity, high ones lower toxicity.
